Test results published in patent publication US7858655B2, “Drug preparation comprising α-lipoic acid, ambroxol and/or inhibitors of the angiotensin-converting enzyme (ACE) and its use for the treatment of neurodegenerative diseases” (Keyneurotek Pharmaceuticals AG, priority 2004, dated 2010).
Where a name gives a salt, the structure may show the parent alone.

Tested on: neuronal cells in organotypical hippocampal tissue cuts
Test: transient oxygen/glucose deprivation (OGD) of organotypical hippocampal tissue cuts, neuronal damage
Type: cell-based, rats
Settings: for neuronal damage, % of the damaged surface area, Median / neuronal damage, % of the damaged surface area, Average Value: after standard OGD with the substance applied, cocktail = α-lipoic acid 10 μg/ml, ambroxol 10 μM, Enalapril 20 μg/ml; for neuronal damage, % of the damaged surface area, Average Value: Control OGD (vehicle) 11.70-13.98; for neuroprotective effect, reduction of the neuronal damage after OGD (in words): after transient OGD, versus standard damage
From the text: For examining the neuroprotective effect of the thiol-reactive substances, the procedure of a transient ischemia for organotypical hippocampal tissue cuts was used, which procedure was standardized in our laboratory. By such a procedure, there are obtained three-dimensional cultivated explantates having a high prediction value for subsequent clinical experiments. In those tissue cultures containing neuronal as well as non-neuronal cells, highly complex intercellular connections are maintained largely. They are of extraordinary importance for the functionality of the whole CNS. The cerebral tissue cultures are exposed to a degenerative event which results into a death of neuronal cells in analogy to clinical situations. The tissue cuts (375 μm) were prepared subsequently from the hippocampus of rats (P7). The cultivation of those cut cultures was effected on membrane inserts having a pore size of 0.02 μm. After 10 to 12 days of cultivation (37° C. in an incubator; 3.3% CO2; 98% relative air humidity), the restructuration processes within the tissue cultures were finished, and a clinical relevant neurodegenerative event was simulated on the tissue cuts by means of a transient oxygen/glucose deprivation. The effect of the substanc(es) was measured in the form of a standard damage change (vehicle application). […] There was quantified the neuronal damage after a standard OGD with and without the application of the cocktail as well as the damage by the application of the cocktail per se (optional toxicity of the substance). The damage is expressed in % of the damaged surface area. In order to obtain such figures, in each tissue cut the whole surface area was compared with the damaged surface area. […] The experiments are based on the protocol described in Example 2. In the course of the experiments shown in FIGS. […], the protective effect of the cocktail was compared with the standard damage after OGD and with the effect resulting from an application of the single substances. […] Tables […] show the relevant statistical parameters.

| Compound | neuronal damage, % of the damaged surface area, Median [%] | neuronal damage, % of the damaged surface area, Average Value [%] | neuroprotective effect, reduction of the neuronal damage after OGD (in words) |
| --- | --- | --- | --- |
| Nc1c(Br)cc(Br)cc1CNC1CCC(O)CC1 (stereo not drawn) [Ambroxol, trans-4-(2-amino-3,5-dibromobenzylamino-) cyclohexane hydrochloride] | 8.32 | 10.79 | neither α-lipoic acid nor ambroxol nor the ACE inhibitor, if applied alone, were capable of reducing the neuronal damage significantly |
| CCOC(=O)[C@H](CCc1ccccc1)N[C@@H](C)C(=O)N1CCC[C@H]1C(=O)O [Enalapril, 1-{N-[(S)-1-Ethoxycarbonyl-3-phenylpropyl-]L-alanyl-}L-proline] | 8.70 | 11.23 | neither α-lipoic acid nor ambroxol nor the ACE inhibitor, if applied alone, were capable of reducing the neuronal damage significantly |
| O=C(O)CCCC[C@@H]1CCSS1 [α-Lipoic Acid, (R)-5-(1,2-dithiolane-3-yl-)pentanoic acid] | 13.54 | 14.82 | neither α-lipoic acid nor ambroxol nor the ACE inhibitor, if applied alone, were capable of reducing the neuronal damage significantly |
